Source: patent US10570152B2, “Antibacterial therapeutics and prophylactics” (VYOME BIOSCIENCES PVT. LTD., priority 2015, dated 2020)
Values after ≈ are worked out from the molar mass of the structure shown. Values joined by “and” are separate entries in the source; they are usually repeats but may differ in a detail not shown here. Equal entries are not always repeated.

Legend:
[1] = system: P. acnes CCARM 9010 induced paw inflammation; assay: Anti-inflammatory action in vivo, rat paw edema model; set-up: species or system Sprague Dawley rats; conditions: topical, 24 h post initiation of treatment (32 h post induction)
From the text: Host inflammation is one of the crucial clinical feature of most of the indications associated with bacterial infections. The inventors used an exemplary compound of the invention (Compound 2) to test the anti-inflammatory effects in vivo using rat paw edema model. Inflammation was induced using one of the opportunistic pathogens Propionibacterium acnes prevalent in implant associated infections. Sprague Dawley rats were used for the study and infection was induced by P. acnes CCARM 9010. An inoculum of 1×10^9 CFU/ml of the heat killed bacteria was injected to the plantar side of the right hind paw (˜2×10^7 CFU/paw) except in sham control where saline was injected. Treatments were initiated 8 h post injection by applying the test formulation of Compound 2 (30 mg) twice daily to the plantar surface of the right hind paw and gently rubbing 50 times with the index finger. Comparators Acnedap (dapsone 5% gel) and adapalene gel (Adaferin®) were applied twice daily and once daily based on clinical prescription dosage. Paw sizes were measured in millimeters using Vernier calipers at the start of the infection, 8 h post infection, and 24 h post initiation of treatment (32 h post induction of inflammation). The change in paw size, due to inflammation, was evaluated as the difference between the paw size measured at each time point and the basal paw size measured immediately before edema induction.

[2] = system: E. faecium NCIM 5421; assay: MIC by micro broth dilution; format: cell-based; conditions: Enterococcus faecium, NCIM5421, read-out: Minimum inhibitory concentration (MIC)
Method in brief: (§1)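 CLSI broth microdilution in BHI broth, twofold serial dilutions; inoculum from 0.5 McFarland culture diluted 100-fold. Incubated 37° C for 24 h; MIC read after Alamar blue addition.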

[3] = system: K. pneumonia ATCC 13883; assay: MIC by micro broth dilution; format: cell-based; conditions: Klebsiella pneumoniae, ATCC13883; K. pneumonia ATCC 13883; read-out: Minimum inhibitory concentration (MIC)
Method in brief: as §1

[4] = system: E. coli MTCC 1687; assay: MIC by micro broth dilution; format: cell-based; conditions: Escherichia coli, MTCC1687, read-out: Minimum inhibitory concentration (MIC)
Method in brief: as §1

[5] = system: E. aerogenes M2-1; assay: MIC by micro broth dilution; format: cell-based; conditions: Klebsiella aerogenes, M21, read-out: Minimum inhibitory concentration (MIC)
Method in brief: as §1

[6] = system: E. coli BAA 196; assay: MIC by micro broth dilution; format: cell-based; conditions: Escherichia coli, BAA196, read-out: Minimum inhibitory concentration (MIC)
Method in brief: as §1

[7] = system: S. aureus ATCC 43300; assay: MIC by micro broth dilution; format: cell-based; conditions: Staphylococcus aureus, ATCC43300; S. aureus ATCC 43300; read-out: Minimum inhibitory concentration (MIC)
Method in brief: as §1

[8] = system: S. aureus MTCC 6908; assay: MIC by micro broth dilution; format: cell-based; conditions: Staphylococcus aureus, MTCC6908, read-out: Minimum inhibitory concentration (MIC)
Method in brief: as §1

[9] = system: S. aureus CCARM 3505; assay: MIC by micro broth dilution; format: cell-based; conditions: Staphylococcus aureus, CCARM3505, read-out: Minimum inhibitory concentration (MIC)
Method in brief: as §1

[10] = system: P. aeruginosa ATCC 27853; assay: MIC by micro broth dilution; format: cell-based; conditions: Pseudomonas aeruginosa, ATCC27853, read-out: Minimum inhibitory concentration (MIC)
Method in brief: as §1

[11] = system: A. baumannii ATCC 1906; assay: MIC by micro broth dilution; format: cell-based; conditions: Acinetobacter baumannii, ATCC1906, read-out: Minimum inhibitory concentration (MIC)
Method in brief: as §1

[12] = system: S. epidermidis ATCC 35984; assay: MIC by micro broth dilution; format: cell-based; conditions: Staphylococcus epidermidis, ATCC35984, read-out: Minimum inhibitory concentration (MIC)
Method in brief: as §1

[13] = system: S. epidermidis S12-1; assay: MIC by micro broth dilution; format: cell-based; conditions: Staphylococcus epidermidis, S121, read-out: Minimum inhibitory concentration (MIC)
Method in brief: as §1

[14] = system: E. aerogenes NCIM 5139; assay: MIC by micro broth dilution; format: cell-based; conditions: Klebsiella aerogenes, NCIM5139, read-out: Minimum inhibitory concentration (MIC)
Method in brief: as §1

[15] = Drug release assay of compound impregnated Smart set HV; format: physicochemical; conditions: Smart set HV loaded; PBS buffer (pH 6.8):acetonitrile (9:1), 32° C., 7 days
Description: The drug release study with compound 2 and compound 10 were conducted in sample vial containing 1.5 ml of dissolution media i.e., PBS buffer (pH 6.8):acetonitrile (9:1). The sample was kept in incubator rotator at 32° C. at 40 rpm. The release medium was withdrawn at specified interval of time (2 hr, 4 hr, 6 hr, day 1, day 2, day 3, day 4, day 5, day 6, day 7 and replaced by fresh 1.5 ml dissolution medium each time. All the samples were kept at −20° C. till the analysis is done. The measurement of drug release was done by HPLC.

[16] = system: S. aureus and S. epidermidis; assay: Emergence of resistance assay (serial passaging); format: cell-based, S. aureus MTCC 6908 & S. epidermidis S5-2; conditions: upto 28th generation
Description: The in vitro emergence of resistance assay was performed for the compounds as per methods reported in literatures. The resistance assay for the test compounds was done in the same manner as documented in the MIC assay using micro broth dilution method as per CLSI guidelines. For the second cycle, bacterial culture was collected from the well showing growth, containing the next lowest concentration to the MIC of test compound, and used as inoculum for the next cycle containing the same or higher range of concentrations depending on the MIC in each cycle. The same procedure was repeated in subsequent cycles for 20-30 days. […] The serial passaging was repeated for 20-30 consecutive cycles. The assay was done in duplicates in each cycle.
An increase in MIC≥8 fold compared to the MIC of the test compound in cycle 1 was considered as a significant development of resistance.

[17] = system: Gram negative pathogens; assay: MIC interpretations, Gram negative pathogens; format: cell-based; conditions: most of the Gram negative pathogens
Description: MIC of DART molecules were determined by micro broth dilution as per CLSI guidelines. Bacterial strains were cultured in Brain Heart Infusion Agar (BHIA) at 37° C. for 24 h. For MIC determination, BHI broth (100 μl) was added to each of the wells of a 96 well plate. 100 μl of broth containing drug was added to the first well (1A to 1H) and thereafter serial (double) dilutions were carried out for up to 10 wells (column 1 to column 10 of the 96 well plate). Bacterial inoculum was prepared by adjusting the bacterial culture turbidity to 0.5 McFarland standard (approximately 1.5×10^8 cells/ml) and further diluted (100 times with sterile BHI broth). Diluted bacterial suspension (100 μl) was added to each well except sterility control wells (column 12 of 96 well plate). The plates were incubated at 37° C. for 24 h. The MIC of the test compound was measured after addition of Alamar blue dye.

## Cc1ncc([N+](=O)[O-])n1CCN1CCN(c2cc3c(cc2F)c(=O)c(C(=O)O)c2n3C(C)S2)CC1 (centres unmarked) [Compound 2, 6-Fluoro-1-methyl-7-(4-(2-(2-methyl-5-nitro-1H-imidazol-1-yl)ethyl)piperazin-1-yl)-4-oxo-1H,4H-[1,3]thiazeto[3,2-a]quinoline-3-carboxylic acid]
[1]
  Inhibition of inflammation (%) at 24 h post treatment: 43% and 43.20%
[2]
  MIC: 0.25 µg/mL (≈ 0.497 µM)
[3]
  MIC: 4 µg/mL (≈ 7.96 µM)
[4]
  MIC: 1 µg/mL (≈ 1.99 µM)
[5]
  MIC: 8 µg/mL (≈ 15.9 µM)
[6]
  MIC: 8 µg/mL (≈ 15.9 µM)
[7]
  MIC: 0.13 µg/mL (≈ 0.259 µM)
[8]
  MIC: 0.53 µg/mL (≈ 1.05 µM)
[9]
  MIC: 16 µg/mL (≈ 31.8 µM)
[10]
  MIC: 8 µg/mL (≈ 15.9 µM)
[11]
  MIC: 8 µg/mL (≈ 15.9 µM)
[12]
  MIC: 0.03 µg/mL (≈ 0.0597 µM)
[13]
  MIC: 8 µg/mL (≈ 15.9 µM)
[14]
  MIC: 4 µg/mL (≈ 7.96 µM)
[15]
  drug release from bone cement in words: sustained release of active over a period of 7 days
[16]
  MIC enhancement: 2-4 ×MIC
[17]
  activity (MIC) range: 4 to 8 µg/mL
